In PMC2907470 (Nature chemical biology, 2010):

Legend:
[1] = system: C57BL/6 mice; format: in vivo, mouse; details: for organ distribution: i.p., 20 and 180 min; for cleared in the urine: by 180 min after introduction
[2] = target: T1, Scn-Ngal (Homo sapiens, UniProt P80188); format: binding; details: for iron retention by Scn-Ngal, dose-response: urinary compounds 0.5–100 µM, Scn-Ngal 10 µM
[3] = system: embryonic kidney FoxD1+ stromal cells; assay: Capture of 55Fe from Scn-Ngal:catechol:55Fe by kidney stromal cells; format: cell-based, mouse; details: 37°C, bafilomycin 0.15 nmole, 3 hrs
[4] = target: Scn-Ngal K125A, K134A mutant (Homo sapiens, UniProt P80188, K145A/K154A); assay: 55Fe retention by Scn-Ngal K125A, K134A mutant; format: binding; details: K125 and K134 mutated to alanine, versus wild type
[5] = target: T1, Scn-Ngal; assay: Release of ligands from Scn-Ngal on acidification; format: binding; details: acidification from neutral pH; n = 3
[6] = Stability of catechol in solution monitored by NMR; details: monitored for 20 hrs by NMR, D2O
[7] = target: T1, Scn-Ngal; assay: Fluorescence quenching analysis of Scn-Ngal with free catechol ligands; format: binding; details: with iron III versus catechol itself
[8] = system: kidney proximal tubule LLCPK1 cells; assay: Capture of 55Fe from Scn-Ngal:catechol:55Fe by LLCPK cells; format: cell-based; details: 37°C
[9] = system: LLCPK cells; assay: Iron responsive 5'IRE-YFP reporter in LLCPK cells; format: cell-based; details: 100 or 500 µg/ml, 16 hrs, compared to DMEM alone
[10] = Generation of hydroxyl radicals; format: biochemical; details: 10 µM FeCl3, 30 µM catechols, 2 mM H2O2; Scn-Ngal 10 µM where added

Chain of Scn-Ngal K125A, K134A mutant (P80188 21-198 K145A/K154A): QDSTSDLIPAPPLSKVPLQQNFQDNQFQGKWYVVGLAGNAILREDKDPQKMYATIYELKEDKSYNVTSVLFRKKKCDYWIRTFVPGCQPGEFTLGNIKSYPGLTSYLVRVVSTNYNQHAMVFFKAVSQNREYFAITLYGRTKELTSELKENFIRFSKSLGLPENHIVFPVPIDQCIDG

In the case of “transferrin:iron: iron-loaded transferrin, comparator [reference compound]”, the organ distribution [1] is reported as “accumulated in the bone marrow”.

In the case of Cc1ccc(O)c(O)c1 [4-methylcatechol, 4-methylbenzene-1,2-diol], the “iron retention by Scn-Ngal, dose-response” value (“iron retention by Scn-Ngal” for short) [2] is reported as “saturable iron retention”.

For bafilomycin [reference compound], the 55Fe uptake [3] was “inhibited”.

With O=C(N[C@H]1COC(=O)[C@@H](NC(=O)c2cccc([O-])c2[O-])COC(=O)[C@@H](NC(=O)c2cccc([O-])c2[O-])COC1=O)c1cccc([O-])c1[O-].[Fe+3] [Ent:Fe] the “capture of siderophore:Fe by mutant Scn-Ngal” value [4] was “ineffective”.

With Oc1cccc(O)c1O [Pyrogallol, benzene-1,2,3-triol] the “iron retention by Scn-Ngal” value [2] was “saturable iron retention” and the “pH at which Scn-Ngal:ligand:FeIII complex dissociated” value [5] was under 4.

For Cc1cccc(O)c1O [3-methylcatechol, 3-methylbenzene-1,2-diol], the “iron retention by Scn-Ngal” value [2] was “saturable iron retention” and the “pH at which Scn-Ngal:ligand:FeIII complex dissociated” value [5] was 6.0.

In the case of Oc1ccccc1O [Catechol, benzene-1,2-diol], the “cleared in the urine” value [1] is reported as 80.56±8.8%, the stability in solution [6] is reported as “stable in solution” and the “iron retention by Scn-Ngal” value [2] is reported as “saturable iron retention”. For the same molecule, the “increase in binding affinity in the presence of iron III” value [7] was 100 fold and the “pH at which Scn-Ngal:ligand:FeIII complex dissociated” value [5] was 6.0.

For O=C(N[C@H]1COC(=O)[C@@H](NC(=O)c2cccc(O)c2O)COC(=O)[C@@H](NC(=O)c2cccc(O)c2O)COC1=O)c1cccc(O)c1O [Ent, reference compound], the “association of urinary catechols with Scn-Ngal in presence of competitor” value ([2]; 50 fold molar excess of Ent presaturated with non-radioactive iron) was “blocked”.

B1: Scn-Ngal:catechol:Fe: complex of the lipocalin Scn-Ngal with catechol and iron (protein, UniProt P80188 21-198, looked up)
Neutrophil …: QDSTSDLIPAPPLSKVPLQQNFQDNQFQGKWYVVGLAGNAILREDKDPQKMYATIYELKEDKSYNVTSVLFRKKKCDYWIRTFVPGCQPGEFTLGNIKSYPGLTSYLVRVVSTNYNQHAMVFFKKVSQNREYFKITLYGRTKELTSELKENFIRFSKSLGLPENHIVFPVPIDQCIDG
modifications: complex with catechol and iron
With B1 the “cleared in the urine” value [1] was 56.4±6.7%, the organ distribution [1] was “targeted the kidney” and the 55Fe uptake [8] was “Uptake occurred”. For the same molecule, the “iron dependent YFP probe” value [9] was “activated” and the 55Fe uptake [3] was “Uptake occurred”.

B2: Scn-Ngal: Neutrophil Gelatinase Associated Lipocalin, recombinant, expressed in BL-21 bacteria (protein, UniProt P80188 21-198, looked up)
Neutrophil …: B1 Neutrophil …
In the case of B2, the “conversion of HPF to fluorescein (hydroxyl radical formation)” value [10] is reported as “blocked the reaction”.
